What all share (type): functional, cell-based
The target in assay [1] is Muscarinic acetylcholine receptor M3 (Homo sapiens, UniProt P20309). As to the kind of experiment: Modulatory activity at M3 receptor (unknown origin) expressed in CHO-K1 cells assessed as intracellular calcium flux incubated for 30 mins by Fluo-8 dye based FLIPR analysis.
Assay [2] has as its target T1, Muscarinic acetylcholine receptor M1 (Homo sapiens, UniProt P11229).
T1 sequence (P11229 whole entry): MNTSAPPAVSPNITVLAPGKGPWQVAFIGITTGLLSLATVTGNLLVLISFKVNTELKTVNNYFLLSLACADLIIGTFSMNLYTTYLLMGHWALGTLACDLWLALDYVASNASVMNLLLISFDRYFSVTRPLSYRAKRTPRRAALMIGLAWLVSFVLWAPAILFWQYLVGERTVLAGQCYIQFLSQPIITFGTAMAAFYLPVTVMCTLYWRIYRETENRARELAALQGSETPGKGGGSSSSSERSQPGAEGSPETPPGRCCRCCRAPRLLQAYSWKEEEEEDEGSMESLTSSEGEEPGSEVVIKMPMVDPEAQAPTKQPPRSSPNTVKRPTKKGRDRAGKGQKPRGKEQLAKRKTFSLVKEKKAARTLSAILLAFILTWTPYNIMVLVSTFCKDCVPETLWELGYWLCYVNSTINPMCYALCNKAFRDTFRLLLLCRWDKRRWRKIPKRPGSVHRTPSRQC
As to the kind of experiment: Modulatory activity at M1 receptor (unknown origin) expressed in CHO-K1 cells assessed as intracellular calcium flux incubated for 30 mins by Fluo-8 dye based FLIPR analysis. For orientation: A change in cytosolic calcium serves as a functional read-out for many receptors and channels.

Assay [3] addresses T2, Muscarinic acetylcholine receptor M5 (Homo sapiens, UniProt P08912).
T2 sequence (P08912 whole entry): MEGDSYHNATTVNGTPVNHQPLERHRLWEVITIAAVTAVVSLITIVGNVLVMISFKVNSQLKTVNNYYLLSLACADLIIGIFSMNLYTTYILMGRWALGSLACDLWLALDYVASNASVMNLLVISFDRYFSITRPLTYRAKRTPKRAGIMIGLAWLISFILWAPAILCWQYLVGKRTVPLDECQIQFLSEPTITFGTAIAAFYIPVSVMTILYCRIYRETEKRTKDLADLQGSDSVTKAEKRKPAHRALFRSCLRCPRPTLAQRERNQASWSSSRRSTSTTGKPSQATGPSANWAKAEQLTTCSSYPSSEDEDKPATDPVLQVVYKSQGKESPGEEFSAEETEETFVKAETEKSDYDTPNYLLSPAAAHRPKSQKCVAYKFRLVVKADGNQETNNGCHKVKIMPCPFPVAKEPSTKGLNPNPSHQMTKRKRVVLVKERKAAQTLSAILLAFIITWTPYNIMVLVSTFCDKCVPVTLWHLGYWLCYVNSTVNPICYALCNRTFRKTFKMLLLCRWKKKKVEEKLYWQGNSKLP
Description: Modulatory activity at M5 receptor (unknown origin) expressed in CHO-K1 cells assessed as intracellular calcium flux incubated for 30 mins by Fluo-8 dye based FLIPR analysis.

For assay [4], the target named is T3, Muscarinic acetylcholine receptor M4 (Homo sapiens, UniProt P08173).
T3 sequence (P08173 whole entry): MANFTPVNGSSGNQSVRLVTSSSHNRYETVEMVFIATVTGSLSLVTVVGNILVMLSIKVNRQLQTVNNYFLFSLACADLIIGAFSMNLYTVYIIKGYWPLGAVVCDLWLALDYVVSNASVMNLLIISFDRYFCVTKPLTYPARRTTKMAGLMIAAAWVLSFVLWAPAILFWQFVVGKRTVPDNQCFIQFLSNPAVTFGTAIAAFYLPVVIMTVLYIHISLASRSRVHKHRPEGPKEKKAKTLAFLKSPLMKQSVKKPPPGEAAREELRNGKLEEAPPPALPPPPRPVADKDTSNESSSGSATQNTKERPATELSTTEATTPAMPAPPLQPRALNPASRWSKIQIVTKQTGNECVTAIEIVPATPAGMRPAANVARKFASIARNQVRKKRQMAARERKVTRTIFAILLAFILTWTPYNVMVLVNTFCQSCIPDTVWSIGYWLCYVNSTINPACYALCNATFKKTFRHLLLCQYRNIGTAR
As to the kind of experiment: Modulatory activity at M4 receptor (unknown origin) expressed in CHO-K1 cells assessed as cAMP production by TR-FRET analysis. (Changes in cAMP serve as a functional read-out for many G protein-coupled receptors.)

In assay [5] the target is T4, Muscarinic acetylcholine receptor M2 (Homo sapiens, UniProt P08172).
T4 sequence (P08172 whole entry): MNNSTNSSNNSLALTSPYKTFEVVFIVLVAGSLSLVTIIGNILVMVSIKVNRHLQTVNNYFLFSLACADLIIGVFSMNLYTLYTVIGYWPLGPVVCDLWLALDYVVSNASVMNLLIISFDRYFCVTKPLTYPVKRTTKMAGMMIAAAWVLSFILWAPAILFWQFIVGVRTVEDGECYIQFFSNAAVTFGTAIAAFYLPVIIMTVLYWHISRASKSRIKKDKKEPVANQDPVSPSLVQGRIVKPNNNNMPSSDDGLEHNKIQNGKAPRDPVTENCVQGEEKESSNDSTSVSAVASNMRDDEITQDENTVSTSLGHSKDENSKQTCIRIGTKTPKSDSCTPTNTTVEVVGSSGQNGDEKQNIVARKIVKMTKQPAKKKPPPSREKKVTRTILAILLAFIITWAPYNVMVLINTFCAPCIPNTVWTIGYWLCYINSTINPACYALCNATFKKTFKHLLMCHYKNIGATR
As to the kind of experiment: Modulatory activity at M2 receptor (unknown origin) expressed in CHO-K1 cells assessed as cAMP production by TR-FRET analysis.

A value given as a limit tells only on which side of the number the result lay.

As usually defined, the EC50 is the concentration needed to bring the measured effect to its halfway point.

Chain of Muscarinic acetylcholine receptor M3 (P20309 whole entry): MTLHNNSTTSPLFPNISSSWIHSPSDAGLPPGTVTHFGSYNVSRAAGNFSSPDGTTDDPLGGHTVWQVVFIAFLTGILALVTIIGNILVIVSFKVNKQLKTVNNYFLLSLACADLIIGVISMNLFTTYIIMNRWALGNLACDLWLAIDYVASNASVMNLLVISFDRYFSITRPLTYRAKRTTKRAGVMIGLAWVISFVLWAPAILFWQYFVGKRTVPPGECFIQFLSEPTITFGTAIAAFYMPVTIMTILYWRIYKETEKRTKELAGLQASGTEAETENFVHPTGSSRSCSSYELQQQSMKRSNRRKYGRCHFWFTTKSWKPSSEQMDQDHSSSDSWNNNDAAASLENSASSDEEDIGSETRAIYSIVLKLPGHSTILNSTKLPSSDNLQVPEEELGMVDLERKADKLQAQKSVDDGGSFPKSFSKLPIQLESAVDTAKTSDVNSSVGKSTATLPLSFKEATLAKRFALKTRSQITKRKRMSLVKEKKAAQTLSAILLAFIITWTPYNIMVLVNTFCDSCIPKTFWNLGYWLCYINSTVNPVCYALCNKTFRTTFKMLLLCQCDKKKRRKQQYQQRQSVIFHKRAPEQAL

As for `CCOC(=O)N1CC2(CC[C@@H](N3CCN(c4cc(F)cnc4-c4cncc(OC)c4)CC3)C2)C1`, the EC50 in assay [1] is > 10 µM; in assay [2], < 0.02 µM; in assay [3], > 10 µM; in assay [4], < 20 nM; in assay [5], > 10 µM.

On to `CCOC(=O)N1CC2(CC[C@@H](N3CCN(c4cc(F)cnc4-c4cnn(C(F)F)c4)CC3)C2)C1`, for which the EC50 in assay [1] is > 10 µM; in assay [2], > 10 µM; in assay [3] it was > 10 µM; in assay [4] it was < 20 nM; in assay [5] it was < 0.02 µM.

For `CCOC(=O)N1CC2(CC[C@@H](N3CCN(c4cc(F)cnc4-c4cnn(C(C)C)c4)CC3)C2)C1`, the EC50 in assay [1] is > 10 µM; in assay [2] it was > 10 µM; in assay [3], > 10 µM; in assay [4], < 20 nM; in assay [5], 0.1 µM.

On to `CCOC(=O)N1CC2(CC[C@@H](N3CCN(c4cc(F)cnc4-c4cccc(CO)c4)CC3)C2)C1`, for which the 50% effective concentration (EC50) in assay [1] is > 10 µM; in assay [2] it was > 10 µM; in assay [3], > 10 µM; in assay [4], < 20 nM.

Turning to `CCOC(=O)N1CC2(CC[C@@H](N3CCN(c4cc(F)cnc4-c4cncs4)CC3)C2)C1`, the EC50 was > 10 µM in assay [1]; < 0.02 µM in assay [2]; > 10 µM in assay [3]; < 20 nM in assay [4]; > 10 µM in assay [5].

As to `CCOC(=O)N1CC2(CC[C@@H](N3CCN(c4cc(F)cnc4-c4cscn4)CC3)C2)C1`, the concentration for a half-maximal effect (EC50) in assay [4] is < 20 nM; in assay [5], 0.1 µM.

In the case of `CCOC(=O)N1CC2(CC[C@@H](N3CCN(c4cccnc4-c4ccc(F)nc4)CC3)C2)C1`, the EC50 in assay [1] is > 10 µM; in assay [2], > 10 µM; in assay [3], 0.02 µM; in assay [4], < 20 nM; in assay [5], > 10 µM.

Regarding `CCOC(=O)N1CC2(CC[C@@H](N3CCN(c4cc(F)cnc4-c4ccc(=O)[nH]c4)CC3)C2)C1`, the concentration for a half-maximal effect (EC50) in assay [1] was > 10 µM; in assay [2] it was < 0.02 µM; in assay [3] it was 0.02 µM; in assay [4], < 20 nM; in assay [5], > 10 µM.

As to `CCOC(=O)N1CC2(CC[C@H](N3CCC(O)(c4cc(F)cnc4-c4cnccn4)CC3)C2)C1`, the EC50 in assay [4] was 20 nM; in assay [5], > 10 µM.

Turning to `CCOC(=O)N1CC2(CC[C@@H](N3CCC(O)(c4cc(F)cnc4-c4cnccn4)CC3)C2)C1`, the values for the EC50 in assay [4] and in assay [5] were < 20 nM and > 10 µM, respectively.

As for `CCOC(=O)N1CC2(CC[C@@H](N3CCN(c4cc(F)cnc4-c4ccc(=O)n(C)c4)CC3)C2)C1`, the concentration giving a half-maximal response (EC50) in assay [1] was > 10 µM; in assay [2], > 10 µM; in assay [3] it was > 10 µM; in assay [4], < 20 nM; in assay [5] it was > 10 µM.
